Paper PMC11555717 (Cancer Medicine, 2024)
“Also recorded” adds a separate entry of the source. Marks after values point to notes of the source that are not given here.

Columns and labels:
Type in all cases: in vivo, human
[1] = EV-203 pharmacokinetics of ADC, TAb and free MMAE in serum or plasma; conditions: for Serum concentration at end of infusion / AUC0–7d / C max: mean (SD); for AUC0–7d: 1.25 mg/kg IV
Protocol: (§1) In the PK cohort (i.e., PK analysis set), intensive PK sampling was performed wherein blood samples for analysis of ADC, total antibody (TAb), and free (unconjugated) MMAE were collected at prespecified time points. […] Blood samples for antitherapeutic antibodies (ATAs) were collected predose on Day 1 of cycles 1 to 4, 6, 8, 10, and within 30–37 days after the last study dose. Validated assays were used to measure concentrations of ADC, TAb, and free MMAE in serum or plasma and to assess ATA levels.
All patients who received any amount of study drug were included in the primary analyses of efficacy endpoints and safety analyses. The PK analyses included data from patients in the PK cohort who received at least 3 of 4 doses of the study drug through cycle 2 Day 1 and had at least five blood samples collected and assayed for measurements of ADC, TAb, or free MMAE concentrations to determine at least one PK parameter.

[2] = EV-203 immunogenicity: antitherapeutic antibodies (ATAs) against enfortumab vedotin; conditions: 38 participants tested
Protocol: as §1
Secondary endpoints were confirmed ORR by investigator assessment; DOR, disease control rate (DCR), and progression‐free survival (PFS) by IRC and investigator assessments; OS; incidence of ATAs to ADC; and safety/tolerability. PFS was defined as the time from the start of the study treatment to the first documentation of objective tumor progression (i.e., progressive disease per RECIST version 1.1) by IRC or investigator assessment (whichever was specified) or to death due to any cause, whichever came first. OS was defined as the time from the start of study treatment to the date of death due to any cause. […] Data for treatment‐related AEs (TRAEs) were evaluated by the investigator.

[3] = test system: Chinese patients with previously treated locally advanced or metastatic urothelial carcinoma; assay: EV-203 phase 2: antitumor activity per RECIST v1.1 (IRC and investigator), PFS, OS; conditions: for Confirmed disease control rate (95% CI): CR, PR or stable disease; for Duration of response, median (95% CI): NE = not evaluable; for Confirmed best overall response: Stable disease: minimum duration 49 days; for Confirmed objective response rate (95% CI): RECIST v1.1, 1.25 mg/kg
From the text: This was a single‐arm, open‐label phase 2 study that enrolled patients from six centers in China. Up to 40 patients were planned for enrollment. Two of the study centers were designated as PK cohort sites and planned to enroll 12 or more patients who agreed to intensive PK sampling for PK analysis in addition to safety and efficacy assessments.
The study enrolled Chinese adults (age ≥ 18 years or considered an adult per local regulations) with histologically or cytologically confirmed UC/transitional cell carcinoma of the bladder, renal pelvis, ureter, or urethra not amenable to curative intent treatment. Patients with other histologies, including adenocarcinoma, squamous differentiation, or mixed, were also eligible. Patients must have received prior treatment with platinum‐based chemotherapy and PD‐1/L1 inhibitor therapy in the locally advanced or metastatic setting or in the neoadjuvant or adjuvant setting with recurrence or progressive disease during therapy or within 12 months (platinum‐based chemotherapy) or 3 months (PD‐1/L1 inhibitor) of completion of treatment; had baseline measurable disease according to Response Evaluation Criteria in Solid Tumors (RECIST) version 1.1; and an Eastern Cooperative Oncology Group performance status (ECOG PS) of 0–1. Key exclusion criteria were preexisting grade 2 or higher sensory/motor neuropathy; active central nervous system metastases; clinically significant toxicity associated with prior treatment; ongoing grade 3 or higher immunotherapy‐related hypothyroidism or panhypopituitarism, ongoing immunotherapy‐related colitis, uveitis, myocarditis, or pneumonitis; other immunotherapy‐related adverse events (AEs) requiring high‐dose steroids (prednisone > 20 mg/day or equivalent); or history of uncontrolled diabetes mellitus (glycated hemoglobin ≥ 8% or between 7% and < 8% with diabetes‐related symptoms not otherwise explained) within 3 months prior to the first study dose.
Study treatment continued until one or more of the following occurred: patient or investigator decision; documented radiologic disease progression per RECIST version 1.1 by investigator assessment; start of new anticancer therapy; unacceptable toxicity; pregnancy; protocol noncompliance; or more than six consecutive doses of study treatment missed by the patient. Prespecified dose modifications were permitted depending on AE type and severity.
Antitumor activity was assessed every 8 weeks (±1 week) via computed tomography with contrast. After 1 year of study, imaging frequency was reduced to every 12 weeks (±1 week). Complete response (CR) and partial response (PR; per RECIST version 1.1) were confirmed by repeat scans conducted at least 4 weeks after the initial response. Responses were assessed by investigators and an independent review committee (IRC). Tumor assessments were continued until the study end or the first occurrence of radiologic disease progression per RECIST version 1.1, as determined by investigator assessment, the patient initiated new anticancer therapy, or the patient died, withdrew study consent, or was lost to follow‐up.
The primary efficacy endpoint was confirmed ORR as assessed by IRC. The ORR was defined as the proportion of patients with CR or PR according to RECIST version 1.1. […] Other primary endpoints included selected PK parameters of ADC, TAb, and free MMAE.
Secondary endpoints were confirmed ORR by investigator assessment; DOR, disease control rate (DCR), and progression‐free survival (PFS) by IRC and investigator assessments; OS; incidence of ATAs to ADC; and safety/tolerability. PFS was defined as the time from the start of the study treatment to the first documentation of objective tumor progression (i.e., progressive disease per RECIST version 1.1) by IRC or investigator assessment (whichever was specified) or to death due to any cause, whichever came first. OS was defined as the time from the start of study treatment to the date of death due to any cause. […]

[4] = serum, Cycle 1 Day 1, PK cohort
[5] = serum, Cycle 1 Day 15, PK cohort

## enfortumab vedotin: fully human monoclonal ADC directed to Nectin-4, delivering intracellular monomethyl auristatin E (MMAE) to tumor cells
[1]; cycle 1 Day 1, Non-PK cohort
  Serum concentration at end of infusion: 25,300 (3830) [23] ng/mL
[1]; cycle 1 Day 1, PK cohort
  Serum concentration at end of infusion: 27,700 (4410) [13] ng/mL
[1]; cycle 1 Day 8, Non-PK cohort
  Serum concentration at end of infusion: 24,900 (5400) [17] ng/mL
[1]; cycle 1 Day 8, PK cohort
  Serum concentration at end of infusion: 27,400 (4390) [12] ng/mL
[1]; cycle 1 Day 15, Non-PK cohort
  Serum concentration at end of infusion: 22,000 (5980) [11] ng/mL
[1]; cycle 1 Day 15, PK cohort
  Serum concentration at end of infusion: 27,500 (3820) [10] ng/mL
[1]; [4]
  AUC0–7d: 32.4 (6.2) day μg/mL
  C max: 28.1 (4.52) μg/mL
[1]; [5]
  AUC0–7d: 36.5 (7.9) day μg/mL
  C max: 27.6 (4.01) μg/mL
[1]; serum, PK cohort cycle 1
  Time of peak serum concentration: at the end of the enfortumab vedotin infusion
[2]
  Incidence of positive ATAs postbaseline: 0%
[3]; IRC assessment
  Median time to response: 1.8 (range, 1.7–3.8) months
[3]; IRC assessment, N = 40
  Median PFS: 4.7 months
[3]; IRC, 14 patients
  Best overall response PR, patients: 35.0%
[3]; IRC, 24 of 37 patients
  Patients with reductions of 30% or more from baseline in target lesions: 64.9%
[3]; IRC, 33 of 37 patients with baseline and postbaseline assessments
  Patients with reduction in sum of diameters of target lesions from baseline: 89.2%
[3]; IRC, N = 40
  Confirmed disease control rate (95% CI): 72.5 (56.1–85.4) %
  Confirmed best overall response: CR: 1 (2.5) n (%)
  Confirmed best overall response: NE (not evaluable): 4 (10.0) n (%)
  Confirmed best overall response: PR: 14 (35.0) n (%)
  Confirmed best overall response: Progressive disease: 7 (17.5) n (%)
  Confirmed best overall response: Stable disease: 14 (35.0) n (%)
  Confirmed objective response rate (95% CI): 37.5 (22.7–54.2) ^b %
[3]; IRC, Kaplan–Meier
  Rate of duration of response (95% CI) at 6 months: 59.7 (22.2–83.8) %
  Duration of response, median (95% CI): not reached; also recorded: NE (2.04–NE)
[3]; IRC, n/N = 5/11
  ORR, subgroup patients with liver metastases: 45.5%
[3]; IRC, n/N = 6/18
  ORR, subgroup three or more lines of systemic therapy: 33.3%
[3]; IRC, n/N = 7/10
  ORR, subgroup baseline ECOG PS of 0: 70.0%
[3]; IRC, n/N = 7/11
  ORR, subgroup primary tumor site bladder or other: 63.6%
[3]; IRC, n/N = 8/29
  ORR, subgroup primary tumor site upper tract: 27.6%
[3]; IRC, n/N = 8/30
  ORR, subgroup baseline ECOG PS of 1: 26.7%
[3]; IRC, one patient
  Best overall response CR, patients: 2.5%
[3]; Investigator, N = 40
  Confirmed disease control rate (95% CI): 82.5 (67.2–92.7) %
  Confirmed best overall response: CR: 0 n (%)
  Confirmed best overall response: NE (not evaluable): 3 (7.5) n (%)
  Confirmed best overall response: PR: 17 (42.5) n (%)
  Confirmed best overall response: Progressive disease: 4 (10.0) n (%)
  Confirmed best overall response: Stable disease: 16 (40.0) n (%)
  Confirmed objective response rate (95% CI): 42.5 (27.0–59.1) %
[3]; Investigator, Kaplan–Meier
  Rate of duration of response (95% CI) at 6 months: 61.1 (26.2–83.4) %
  Duration of response, median (95% CI): not reached; also recorded: NE (2.04–NE)
[3]; Kaplan–Meier, N = 40
  Overall survival at 6 months (95% CI): 78.0 (60.1–88.6) %
[3]; investigator assessment, N = 40
  Median PFS: 4.2 months
[3]; median follow-up 6.5 months
  Median OS: not reached (lower bound of 95% CI: 6.74)
